From patent US6462078B1, “Epoxyvibsanin B” (priority 2001, dated 2002) come the findings set out here.

What all share (format): cell-based, human
The test system of series [1] is PBMC. The protocol: (§1) Epoxyvibsanin B was also tested for cytotoxicity using a Cell Titer 96 Aqueous Non-radioactive kit (Promega, order no. G5421). Phenazine methosulfate (Sigma; catalog no. P 5812) was added as an electron donor to a cell culture containing PBMC (500,000 cells per well) and epoxyvibsanin B (final concentration of 1 μg/ml). 3-(4,5-Dimethylthiazole-2-yl)-5-(3-carbomethoxyphenyl)-2-(4-sulphophenyl)-2H-tetrazolium (MTS) was then added. Cells were incubated for 2 hours in a humidified 37° C., 7% CO2 incubator. The supernatant from the cell culture was harvested and its absorbance at 490 nm was recorded. Cell viability was determined based on the level of MTS (which reacted with mitochondria dehydrogenases enzymes in the living cells), as compared to that obtained from an epoxyvibsanin B-free control experiment. Epoxyvibsanin B was further tested for cytotoxicity toward THP-1 cells.

Series [2] has as its system IL-12 production. In words: IL-12 inhibitory assay in PBMC stimulated with IFN-γ and LPS (IL-12 p70 sandwich ELISA). The protocol:
Mononuclear cells from human peripheral blood (PBMC) were harvested from a leukopak using standard procedures. The cells, diluted to three millions per mL, were maintained in RPMI medium supplemented with fetal calf serum (10%), penicillin (100 U/mL), streptomycin (100 μg/mL) and […] (2 mM). Human interferon gamma (IFN-γ, Boehringer Mannheim; catalog no. 1040596) was diluted to 60 units/mL using the cell-containing supplemented medium. 100 μL of the resulting cell culture was added to each well of a 96-well U-shaped bottom microtiter plate, and incubated overnight in a humidified 37° C., 7% CO2 incubator. Epoxyvibsanin B in 4×RPMI stock medium was added to each well with a final concentration of 1 μg/mL, followed by the addition of lipopolysaccharide (LPS, Serratia […] Sigma; catalog no. L-4766) in 4×RPMI stock medium with a final concentration of 1 μg/mL. The plate was gently vortexed and continuously incubated for 16 hrs. IFN-γ and LPS have stimulated PBMC for IL-12 production. The supernatant from each cell culture was harvested, and the secreted IL-12 p70 in the supernatant was quantitated with a sandwich ELISA using anti-human IL-12 antibodies (R & D systems; catalog no. mAb 611 and catalog no. BAF 219). An epoxyvibsanin B-free control experiment was also perfonned. […] The inhibition of IL-12 production was further tested in parallel experiments using two cell lines: PBMC and the human promonocytic leukemia mononuclear cells (THP-1 cells). As described above, PBMC were added to a 96-well plate with 500,000 cells per well, and stimulated for IL-12 production with IFN-γ (200 U/ml) and LPS (1 μg/ml). In parallel, THP-1 cells were added to a 96-well plate with 800,000 cells per well, and stimulated for IL-12 production with IFN-γ (2000 U/ml) and Staph Aureus Cowan I (0.05%, SAC or Pansorbin; from Calbiochem; lot no. B15921). The supernatant from each cell culture was harvested and analyzed for IL-12 p70 with a sandwich ELISA by using the antibodies indicated above. […]

The test system of series [3] is THP-1 cells. In words: Cytotoxicity assay (MTS) in THP-1 cells. As to the method: as §1
In series [4] the test system is IL-12 production. In words: IL-12 inhibitory assay in THP-1 cells stimulated with IFN-γ and SAC (IL-12 p70 sandwich ELISA). The note with it: THP-1 800,000 cells per well, IFN-γ 2000 U/ml + SAC 0.05%; read-out: IC50, inhibition of IL-12 production. As to the method:
The inhibition of IL-12 production was further tested in parallel experiments using two cell lines: PBMC and the human promonocytic leukemia mononuclear cells (THP-1 cells). As described above, PBMC were added to a 96-well plate with 500,000 cells per well, and stimulated for IL-12 production with IFN-γ (200 U/ml) and LPS (1 μg/ml). In parallel, THP-1 cells were added to a 96-well plate with 800,000 cells per well, and stimulated for IL-12 production with IFN-γ (2000 U/ml) and Staph Aureus Cowan I (0.05%, SAC or Pansorbin; from Calbiochem; lot no. B15921). The supernatant from each cell culture was harvested and analyzed for IL-12 p70 with a sandwich ELISA by using the antibodies indicated above. […] The activity of epoxyvibsanin B in inhibiting IL-12 production is 10-fold that of a known anti-inflammatory compound, dexamethazone.
A general note: In an ELISA, binding on a coated surface is turned into a signal by an enzyme label.

By CC50 is commonly meant the concentration giving 50% cytotoxicity. Read a low CC50 as harm at low concentration. For orientation: IC50 means the midpoint of a concentration-inhibition curve. On to epoxyvibsanin B, for which the CC50 is 5000 nM in series [1] and 10000 nM in series [3]. For the same substance, in series [1], the “cytotoxicity compared with dexamethazone” value was “lower than that of dexamethazone”. Moreover, the concentration for half-maximal inhibition (IC50) in series [2] (PBMC 500,000 cells per well, IFN-γ 200 U/ml + LPS 1 μg/ml, read-out: IC50, inhibition of IL-12 production) was approximately 1 nM; in series [4] it was 20 nM. Further, the “inhibition of IL-12 production, as compared with control” value in series [2] (PBMC, IFN-γ 60 units/mL + LPS 1 μg/mL, compound 1 μg/mL, 16 hrs) is 90%. Besides, the “activity in inhibiting IL-12 production relative to dexamethazone” value in series [2] (compared with dexamethazone, cell type not specified) came out at 10 fold.
